Assay results reported in patent US10954214B2 (Janssen Pharmaceutica NV, priority 2016, dated 2021).

Experiments:
[1] = molecular target: full-length MALT1 protein (Strep-MALT1(1-824)-His) (Homo sapiens (Human), UniProt Q9UDY8); assay: MALT1 Biochemical Protease Assay (Ac-LRSR-AMC substrate); conditions: 10 nM FL MALT1, 200 μM Ac-LRSR-AMC, 4 h at RT; read-out: MALT1_Biochemical activity (Ac-LRSR-amc) IC50
Method in brief: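 Fluorescence from AMC release off the quenched LRSR substrate was read after a 4 h reaction at RT. Values were normalised to no-enzyme and uninhibited controls and fitted for IC50 and Hill coefficient.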

[2] = tested on: IL6 secretion by TMD8 ABC-DLBCL cells; assay: Human IL6 Mesoscale assay (TMD-8); format: cell-based; conditions: Homo sapiens, TMD8; TMD-8 cells, 24 h
Method in brief: (§1)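 100,000 cells/well treated with compound in 9 twofold steps from 15 μM to 58.6 nM (0.3% DMSO) for 24 h at 37° C; supernatant cytokine measured by MSD electrochemiluminescence sandwich immunoassay. DMSO wells set maximum signal, BTK inhibitor RN486 (30 nM to 131 pM) set maximum inhibition.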

[3] = tested on: IL10 secretion by TMD8 ABC-DLBCL cells; assay: Human IL10 Mesoscale assay (TMD-8); format: cell-based; conditions: Homo sapiens, TMD8; TMD-8 cells, 24 h
Method in brief: as §1

TMD8 cells = assay: 4-day proliferation assay, TMD8; format: cell-based; conditions: Homo sapiens, 96 h, 4 days incubation, CellTiterGLO, read-out: Anti-proliferation: TMD-8 IC50
Method in brief: (§2)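 Each line was plated at 10,000 cells per well for linear growth, with no beta-mercaptoethanol during the assay. OCI-Ly3 cells were below passage 10.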

OCI-Ly3 cells = assay: 4-day proliferation assay, OCI-Ly3; format: cell-based, human; conditions: Homo sapiens, 96 h, 4 days incubation, CellTiterGLO, read-out: Anti-proliferation: OCI-LY-3 IC50
Method in brief: as §2

full-length MALT1 protein (Strep-MALT1(1-824)-His), sequence (Q9UDY8 whole entry): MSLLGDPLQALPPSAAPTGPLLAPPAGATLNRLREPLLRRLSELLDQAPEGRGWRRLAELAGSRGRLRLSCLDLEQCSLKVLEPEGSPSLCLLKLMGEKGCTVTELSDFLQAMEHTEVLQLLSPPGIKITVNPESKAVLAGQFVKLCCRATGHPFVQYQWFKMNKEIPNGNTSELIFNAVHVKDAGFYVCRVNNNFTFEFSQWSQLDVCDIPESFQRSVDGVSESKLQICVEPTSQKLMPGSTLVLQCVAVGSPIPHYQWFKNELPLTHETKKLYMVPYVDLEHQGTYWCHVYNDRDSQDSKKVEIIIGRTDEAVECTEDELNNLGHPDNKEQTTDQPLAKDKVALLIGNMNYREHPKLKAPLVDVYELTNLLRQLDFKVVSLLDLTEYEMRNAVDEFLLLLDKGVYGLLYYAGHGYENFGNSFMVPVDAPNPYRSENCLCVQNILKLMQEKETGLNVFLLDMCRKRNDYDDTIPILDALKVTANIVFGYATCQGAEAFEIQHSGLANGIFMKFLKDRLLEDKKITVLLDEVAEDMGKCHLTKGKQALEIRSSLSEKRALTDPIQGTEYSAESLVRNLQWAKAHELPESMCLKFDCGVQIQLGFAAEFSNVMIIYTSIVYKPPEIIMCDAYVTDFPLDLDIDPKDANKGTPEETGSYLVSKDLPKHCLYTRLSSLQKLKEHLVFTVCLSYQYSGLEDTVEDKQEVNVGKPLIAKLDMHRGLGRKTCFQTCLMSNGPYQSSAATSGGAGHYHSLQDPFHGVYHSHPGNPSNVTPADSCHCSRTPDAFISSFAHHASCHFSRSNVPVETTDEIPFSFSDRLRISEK

SMILES	IC50 [1] [nM]	IC50 [2] [nM]	IC50 [3] [nM]	IC50 (OCI-Ly3 cells) [nM]	IC50 (TMD8 cells) [nM]
O=C(Nc1cnc(-n2cc(CO)cn2)c(Cl)c1)c1cnn(-c2cccc3c(=O)[nH]ccc23)c1C(F)(F)F [Cpd 182, N-(5-chloro-6-(4-(hydroxymethyl)-1H-pyrazol-1-yl)pyridin-3-yl)-1-(1-oxo-1,2-dihydroisoquinolin-5-yl)-5-(trifluoromethyl)-1H-pyrazole-4-carboxamide]	35	7590	2510	3140	5250
CN1C(=O)COc2c(Cl)cc(NC(=O)c3cnn(-c4cncc5ccccc45)c3C(F)(F)F)cc21 [Cpd 97, N-(8-chloro-4-methyl-3-oxo-3,4-dihydro-2H-benzo[b][1,4]oxazin-6-yl)-1-(isoquinolin-4-yl)-5-(trifluoromethyl)-1H-pyrazole-4-carboxamide]	209	575	257	3470	~5890
Cn1nc(-c2ncc(NC(=O)c3cnn(-c4cccc5c(=O)[nH]ccc45)c3C(F)(F)F)cc2Cl)cc1N [Cpd 183, N-(6-(5-amino-1-methyl-1H-pyrazol-3-yl)-5-chloropyridin-3-yl)-1-(1-oxo-1,2-dihydroisoquinolin-5-yl)-5-(trifluoromethyl)-1H-pyrazole-4-carboxamide]	35	6610	2140	3570	> 20000
N#Cc1cc(NC(=O)c2cnn(-c3cncc4ccccc34)c2C(F)(F)F)cnc1OCCCCN [Cpd 84, N-(6-(4-aminobutoxy)-5-cyanopyridin-3-yl)-1-(isoquinolin-4-yl)-5-(trifluoromethyl)-1H-pyrazole-4-carboxamide]	214	148	355	1700	> 20000
O=C(Nc1cnc(-n2ccnc2)c(Cl)c1)c1cnn(-c2cncc3ccccc23)c1C(F)(F)F [Cpd 70, N-(5-chloro-6-(1H-imidazol-1-yl)pyridin-3-yl)-1-(isoquinolin-4-yl)-5-(trifluoromethyl)-1H-pyrazole-4-carboxamide]	479	1100	891	~1350	~13800
Nc1nccc(-c2ccc(NC(=O)c3cnn(-c4cncc5ccccc45)c3C(F)(F)F)cc2Cl)n1 [Cpd 58, N-(4-(2-Aminopyrimidin-4-yl)-3-chlorophenyl)-1-(isoquinolin-4-yl)-5-(trifluoromethyl)-1H-pyrazole-4-carboxamide]	141	331	288	500	4470
N#Cc1cncc(NC(=O)c2cnn(-c3cncc4ccccc34)c2C(F)(F)F)c1 [Cpd 82, N-(5-cyanopyridin-3-yl)-1-(isoquinolin-4-yl)-5-(trifluoromethyl)-1H-pyrazole-4-carboxamide]	676	240	295	~1580	6310

Further lines, with some results ahead:

IC50 [1] [nM]	IC50 [2] [nM]	IC50 [3] [nM]	IC50 (OCI-Ly3 cells) [nM]	SMILES	IC50 (TMD8 cells) [nM]
71	37	148	780	N#Cc1cc(NC(=O)c2cnn(-c3cccc4ncccc34)c2C(F)(F)F)cnc1-n1cncn1 [Cpd 86, N-(5-cyano-6-(1H-1,2,4-triazol-1-yl)pyridin-3-yl)-1-(quinolin-5-yl)-5-(trifluoromethyl)-1H-pyrazole-4-carboxamide]	~11200
43	7240	4170	939	COC(=O)c1ccc(NC(=O)c2cnn(-c3cccc4ncccc34)c2C(F)(F)F)cc1C#N [Cpd 313, methyl 2-cyano-4-(1-(quinolin-5-yl)-5-(trifluoromethyl)-1H-pyrazole-4-carboxamido)benzoate]	7940
8	457	178	282	N#Cc1cc(NC(=O)c2cnn(-c3ccnc4ccoc34)c2C(F)(F)F)cnc1-n1nccn1 [Cpd 150, N-(5-cyano-6-(2H-1,2,3-triazol-2-yl)pyridin-3-yl)-1-(furo[3,2-b]pyridin-7-yl)-5-(trifluoromethyl)-1H-pyrazole-4-carboxamide]	> 7940
98	~340	251	~2340	O=C(Nc1cnc(OC2CC2)c(Cl)c1)c1cnn(-c2cccc3ncccc23)c1C(F)(F)F [Cpd 79, N-(5-Chloro-6-cyclopropoxypyridin-3-yl)-1-(quinolin-5-yl)-5-(trifluoromethyl)-1H-pyrazole-4-carboxamide]	8320
23	245	126	447	N#Cc1cc(NC(=O)c2cnn(-c3ccnc4ccccc34)c2C(F)(F)F)cnc1-n1nccn1 [Cpd 138, N-(5-cyano-6-(2H-1,2,3-triazol-2-yl)pyridin-3-yl)-1-(quinolin-4-yl)-5-(trifluoromethyl)-1H-pyrazole-4-carboxamide]	2510
1100	7410	1050	> 20000	Cc1cncc2c(-n3ncc(C(=O)Nc4cnc(-n5nccn5)c(Cl)c4)c3C(F)(F)F)cccc12 [Cpd 33, N-(5-Chloro-6-(2H-1,2,3-triazol-2-yl)pyridin-3-yl)-1-(4-methylisoquinolin-8-yl)-5-(trifluoromethyl)-1H-pyrazole-4-carboxamide]	> 20000
28	126	47	626	N#Cc1cc(NC(=O)c2cnn(-c3cncc4ncccc34)c2C(F)(F)F)cnc1-n1nccn1 [Cpd 145, N-(5-cyano-6-(2H-1,2,3-triazol-2-yl)pyridin-3-yl)-1-(1,7-naphthyridin-5-yl)-5-(trifluoromethyl)-1H-pyrazole-4-carboxamide]	4570
389	339	112	905	N#Cc1cc(NC(=O)c2cnn(-c3nccn4nccc34)c2C(F)(F)F)cnc1-n1nccn1 [Cpd 425, N-(5-cyano-6-(2H-1,2,3-triazol-2-yl)pyridin-3-yl)-1-(pyrazolo[1,5-a]pyrazin-4-yl)-5-(trifluoromethyl)-1H-pyrazole-4-carboxamide]	11000
26	98	56	423	N#Cc1cc(NC(=O)c2cnn(-c3nccc4ccsc34)c2C(F)(F)F)cnc1-n1nccn1 [Cpd 143, N-(5-cyano-6-(2H-1,2,3-triazol-2-yl)pyridin-3-yl)-1-(thieno[2,3-c]pyridin-7-yl)-5-(trifluoromethyl)-1H-pyrazole-4-carboxamide]	9550
37	251	155	1950	N#Cc1cc(NC(=O)c2cnn(-c3nccc4ncccc34)c2C(F)(F)F)cnc1-n1nccn1 [Cpd 100, N-(5-cyano-6-(2H-1,2,3-triazol-2-yl)pyridin-3-yl)-1-(1,6-naphthyridin-5-yl)-5-(trifluoromethyl)-1H-pyrazole-4-carboxamide]	~5250
24	72	28	1170	N#Cc1cc(NC(=O)c2cnn(-c3ncnn4cccc34)c2C(F)(F)F)cnc1-n1nccn1 [Cpd 140, N-(5-cyano-6-(2H-1,2,3-triazol-2-yl)pyridin-3-yl)-1-(pyrrolo[2,1-f][1,2,4]triazin-4-yl)-5-(trifluoromethyl)-1H-pyrazole-4-carboxamide]	5370
